Measured values published in ChEMBL document CHEMBL4419164, “Methods and compositions for inhibiting cnksr1” (2018).
Active and inactive are the calls of the source. The calls are words filed in the database; no cut-off is given here.

Assays:
[1] = Terminal half life in iv dosed mouse; assay type: ADME, organism-based; conditions: in vivo, read-out: beta t1/2
HCC515 [2] = experiment: Growth inhibition of human HCC515 cells relative to control; assay type: functional, cell-based
[3] = molecular target: T1, 3-phosphoinositide-dependent protein kinase 1 (Homo sapiens) (UniProt O15530); experiment: Binding affinity to PDPK1 PH-domain (unknown origin) at 0.01 to 50 uM by SPR spectroscopy
T1 sequence (whole entry): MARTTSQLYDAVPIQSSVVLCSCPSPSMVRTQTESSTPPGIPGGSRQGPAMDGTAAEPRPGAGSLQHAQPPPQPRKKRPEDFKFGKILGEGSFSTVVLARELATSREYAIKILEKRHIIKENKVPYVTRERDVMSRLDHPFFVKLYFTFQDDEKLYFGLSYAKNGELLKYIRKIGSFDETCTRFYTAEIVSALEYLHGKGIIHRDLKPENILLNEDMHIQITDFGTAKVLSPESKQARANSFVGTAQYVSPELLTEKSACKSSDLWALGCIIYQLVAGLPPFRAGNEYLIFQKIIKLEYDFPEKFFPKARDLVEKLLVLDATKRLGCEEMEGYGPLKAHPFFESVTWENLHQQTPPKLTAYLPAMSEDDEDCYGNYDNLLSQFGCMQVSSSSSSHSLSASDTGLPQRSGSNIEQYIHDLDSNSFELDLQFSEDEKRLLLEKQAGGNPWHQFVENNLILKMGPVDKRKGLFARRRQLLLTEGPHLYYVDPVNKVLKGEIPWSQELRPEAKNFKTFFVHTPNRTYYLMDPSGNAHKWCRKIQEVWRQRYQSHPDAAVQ

[4] = molecular target: Rho guanine nucleotide exchange factor TIAM1 (Homo sapiens) (UniProt Q13009); experiment: Binding affinity to TIAM1 PH-domain (unknown origin) at 0.01 to 50 uM by SPR spectroscopy
Rho guanine nucleotide exchange factor TIAM1 (Homo sapiens), sequence (Q13009 whole entry): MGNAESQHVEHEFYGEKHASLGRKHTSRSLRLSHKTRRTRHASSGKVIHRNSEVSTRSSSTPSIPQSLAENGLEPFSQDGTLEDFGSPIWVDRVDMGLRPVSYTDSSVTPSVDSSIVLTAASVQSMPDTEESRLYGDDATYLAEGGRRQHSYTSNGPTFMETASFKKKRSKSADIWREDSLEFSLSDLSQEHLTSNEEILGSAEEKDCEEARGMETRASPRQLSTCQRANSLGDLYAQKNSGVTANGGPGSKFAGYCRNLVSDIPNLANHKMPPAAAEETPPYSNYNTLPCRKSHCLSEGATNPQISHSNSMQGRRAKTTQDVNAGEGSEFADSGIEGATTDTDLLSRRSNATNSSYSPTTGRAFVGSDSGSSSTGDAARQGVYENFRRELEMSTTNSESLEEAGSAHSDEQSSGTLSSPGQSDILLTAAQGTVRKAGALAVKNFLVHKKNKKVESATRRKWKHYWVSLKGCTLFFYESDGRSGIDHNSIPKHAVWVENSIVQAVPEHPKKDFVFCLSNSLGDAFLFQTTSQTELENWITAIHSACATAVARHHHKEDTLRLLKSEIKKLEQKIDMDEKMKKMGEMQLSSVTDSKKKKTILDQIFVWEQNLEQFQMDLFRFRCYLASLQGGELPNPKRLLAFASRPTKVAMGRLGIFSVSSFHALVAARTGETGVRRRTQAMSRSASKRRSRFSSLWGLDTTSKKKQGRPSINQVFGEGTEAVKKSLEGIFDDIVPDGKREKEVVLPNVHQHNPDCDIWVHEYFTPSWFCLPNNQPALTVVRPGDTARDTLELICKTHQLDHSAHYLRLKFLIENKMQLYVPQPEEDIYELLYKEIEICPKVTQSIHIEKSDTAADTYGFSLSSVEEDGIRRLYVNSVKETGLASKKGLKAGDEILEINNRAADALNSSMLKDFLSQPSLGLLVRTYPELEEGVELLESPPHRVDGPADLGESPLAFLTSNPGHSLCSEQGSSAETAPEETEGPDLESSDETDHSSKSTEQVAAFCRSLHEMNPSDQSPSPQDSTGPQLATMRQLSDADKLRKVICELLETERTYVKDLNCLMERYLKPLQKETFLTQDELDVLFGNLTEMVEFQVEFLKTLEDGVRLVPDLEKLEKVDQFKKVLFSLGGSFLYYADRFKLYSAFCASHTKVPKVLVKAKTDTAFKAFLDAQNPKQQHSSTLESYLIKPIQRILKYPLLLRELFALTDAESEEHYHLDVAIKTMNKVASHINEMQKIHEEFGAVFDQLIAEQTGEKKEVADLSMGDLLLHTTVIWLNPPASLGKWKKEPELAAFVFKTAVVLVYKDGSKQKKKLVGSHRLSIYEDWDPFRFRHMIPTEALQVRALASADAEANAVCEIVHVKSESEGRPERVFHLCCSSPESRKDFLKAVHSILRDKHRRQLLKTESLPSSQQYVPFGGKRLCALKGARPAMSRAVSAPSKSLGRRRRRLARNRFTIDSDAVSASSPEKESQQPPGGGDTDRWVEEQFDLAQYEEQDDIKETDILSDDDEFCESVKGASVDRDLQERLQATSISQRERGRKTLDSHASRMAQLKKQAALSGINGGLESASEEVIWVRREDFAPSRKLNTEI

[5] = molecular target: T2, Connector enhancer of kinase suppressor of ras 1 (Homo sapiens) (UniProt Q969H4); experiment: Inhibition of CNKSR1 PH-domain (unknown origin) assessed as reduction in c-RAF Ser338 phosphorylation at 25 to 50 uM by cell based Western blot analysis
T2 sequence (whole entry): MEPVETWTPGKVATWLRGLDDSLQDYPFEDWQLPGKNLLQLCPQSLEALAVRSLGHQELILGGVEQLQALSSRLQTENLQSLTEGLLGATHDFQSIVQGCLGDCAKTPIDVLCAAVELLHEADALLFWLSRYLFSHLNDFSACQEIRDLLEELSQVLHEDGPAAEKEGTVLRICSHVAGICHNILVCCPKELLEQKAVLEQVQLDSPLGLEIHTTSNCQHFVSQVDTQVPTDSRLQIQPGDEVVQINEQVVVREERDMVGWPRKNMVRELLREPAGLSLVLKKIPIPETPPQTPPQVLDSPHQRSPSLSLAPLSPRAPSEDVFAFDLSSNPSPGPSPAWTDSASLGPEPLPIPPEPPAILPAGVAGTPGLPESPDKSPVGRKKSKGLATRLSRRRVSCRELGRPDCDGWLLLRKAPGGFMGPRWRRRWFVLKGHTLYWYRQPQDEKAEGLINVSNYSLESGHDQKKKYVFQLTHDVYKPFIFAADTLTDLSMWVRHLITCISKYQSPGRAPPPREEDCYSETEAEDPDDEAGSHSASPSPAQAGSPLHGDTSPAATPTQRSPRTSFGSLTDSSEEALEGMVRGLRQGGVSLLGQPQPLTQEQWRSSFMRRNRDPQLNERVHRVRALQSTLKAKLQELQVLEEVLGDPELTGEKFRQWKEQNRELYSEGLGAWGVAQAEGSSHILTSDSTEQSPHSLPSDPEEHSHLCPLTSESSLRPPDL

[6] = Toxicity in SCID mouse xenografted with human NCI-H2122 cells assessed as induction of weight loss at 200 mg/kg/day dosed via gavage daily for 20 days; assay type: organism-based; conditions: in vivo, po, 480 h
[7] = Drug metabolism in C57BL6 mouse plasma assessed as Cmax for 2-(4-oxo-3-((4-p-tolylthiazol-2-yl)methyl)-3,4-dihydrophthalazin-1-yl)acetic acid at 250 mg/kg, po dosed via gavage as single administration; assay type: ADME, organism-based; design: dose 250 mg/kg, route oral; conditions: in vivo
[8] = Plasma concentration in C57BL6 mouse at 250 mg/kg, po dosed via gavage as single administration; assay type: ADME, organism-based; conditions: in vivo
[9] = Half life in C57BL6 mouse at 250 mg/kg, po dosed via gavage as single administration; assay type: ADME, organism-based; conditions: in vivo
[10] = Growth inhibition of human […] cells incubated for 3 days; assay type: functional; conditions: 72 h
NCI-H2122 = experiment: Growth inhibition of human NCI-H2122 cells incubated for 3 days; assay type: functional, cell-based; conditions: NCI-H2122, 72 h
HCC515 [11] = experiment: Growth inhibition of human HCC515 cells incubated for 3 days; assay type: functional, cell-based; conditions: HCC515, 72 h
[12] = Half life in mouse plasma at 50 ug/ml at 37 degC at pH 7.4; assay type: ADME, cell-free
[13] = Half life in beagle dog plasma at 50 ug/ml at 37 degC at pH 7.4; assay type: ADME, cell-free, Canis lupus familiaris
[14] = Half life in human plasma at 50 ug/ml at 37 degC at pH 7.4; assay type: ADME, cell-free
[15] = molecular target: T3, carboxylesterase 1 (liver carboxylesterase 1) (Homo sapiens, UniProt P23141); experiment: Stability assessed as recombinant human carboxyesterase-1 mediated compound hydrolysis by measuring half life at 50 ug/ml at 37 degC at pH 7.4; assay type: ADME; conditions: recombinant human carboxylesterase-1, pH 7.4
T3 sequence (P23141 whole entry): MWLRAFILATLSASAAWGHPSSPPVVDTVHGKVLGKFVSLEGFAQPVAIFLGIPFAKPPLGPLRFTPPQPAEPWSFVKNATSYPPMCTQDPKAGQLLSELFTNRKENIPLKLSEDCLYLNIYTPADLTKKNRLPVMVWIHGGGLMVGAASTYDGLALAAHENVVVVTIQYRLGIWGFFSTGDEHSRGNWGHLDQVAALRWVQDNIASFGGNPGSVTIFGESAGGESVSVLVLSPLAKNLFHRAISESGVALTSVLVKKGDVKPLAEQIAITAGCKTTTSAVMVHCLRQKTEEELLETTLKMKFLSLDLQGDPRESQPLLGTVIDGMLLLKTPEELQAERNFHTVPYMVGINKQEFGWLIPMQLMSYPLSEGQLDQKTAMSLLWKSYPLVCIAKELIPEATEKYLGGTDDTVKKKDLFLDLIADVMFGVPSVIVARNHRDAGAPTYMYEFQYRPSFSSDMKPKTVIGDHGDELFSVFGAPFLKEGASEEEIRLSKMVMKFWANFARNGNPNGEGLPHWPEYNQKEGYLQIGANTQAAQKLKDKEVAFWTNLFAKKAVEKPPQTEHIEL

[16] = molecular target: T2, Connector enhancer of kinase suppressor of ras 1 (Homo sapiens); experiment: Inhibition of GFP-tagged CNKSR1 (unknown origin) expressed in HEK293T cells assessed as reduction in total mutant-KRas protein at 50 uM incubated for 4 hrs by confocal imaging assay; assay type: cell-based
[17] = molecular target: T2, Connector enhancer of kinase suppressor of ras 1 (Homo sapiens); experiment: Inhibition of CNKSR1 (unknown origin) assessed as reduction in inhibition of KRas signaling effectors by measuring GTP-RalA levels at 20 uM by cell based assay

- half-life [1]: 3 min
- Activity [3]: inactive
- Activity [4]: inactive
- inhibition [5]: Active
- Cmax [7]: 128 µM
- concentration [8]: 7 µM
- half-life [9]: 360 min
- IC50 (NCI-H2122): 27 µM
- IC50 (HCC515 [11]): 70 µM
- half-life at 50 ug/ml [12]: 6.3 min
- half-life at 50 ug/ml [13]: 558 min
- t1/2 [14]: Stable
- half-life at 50 ug/ml [15]: 19 min
- inhibition [16]: Active
- inhibition [17]: Active
SMILES: CCOC(=O)Cc1nn(Cc2nc(-c3ccc(C)cc3)cs2)c(=O)c2ccccc12
- growth inhibition (GI) (HCC515 [2]): Active
- Activity [6]: Non-Toxic
- IC50 [10]: 51 µM
